Assay results: patent US4218472A, “Geminally disubstituted indene derivatives” (AB Kabi, priority 1977, dated 1980)

Tested on: rat vas deferens
Test: Effect on Rat Isolated Vas Deferens
Format: cell-based
Conditions: Rattus norvegicus, rat isolated vas deferens, cumulative dose-response, 31° C.; read-out: threshold conc.
Excerpt: Effect on Rat Isolated Vas Deferens
Male albino rats weighing 250-350 g were anaesthetized with diethyl ether and then decapitated. The vas deferens was removed, freed from mesenteric attachments and then suspended in Kreb's bicarbonate solution (Hukovic, 1961). Threads were attached to both ends of the organ. The distal part was tied to a fixed pin in the organ bath and the proximal part to a force displacement transducer connected to a recording system. […] The load on the organ was adjusted to 0.5 g. The vas deferens was allowed to stabilize for 15 minutes before dose-response curves were obtained.
The technique for making cumulative dose-response curves in accordance with van Rossum (1963) was employed. The stimulating drug, noradrenaline (NA), was added to the bath in a manner to achieve geometrically increasing concentrations in the organ bath without washings in between. After each injection of NA the organ was allowed to contract until a state of equilibrium had been reached, and then the next dose of NA was added. This procedure was repeated until no further increase in contraction was obtained. The dosage of NA was adapted to give a concentration step in the bath of 1/2 log 10. The tested concentration interval was 10^-8 -10^-4 M, 3.10^-4 M plus maximum effect at 3 10^-5 and 10^-4 M. Compounds of formula I, identified as 2-12, and comparison compounds 13-15, were tested by the same technique. The compounds conform to the formula below except where indicated for other values of R^1, R^2 and R^3.

Compound	minimal effective concentration
CNCC(O)C1=CC2(CCCC2)c2ccccc21 (racemic) [No. 3, 2-Methylamino-1-[spiro(cyclopentane-1,1'-indene)-3'-yl]ethanol]	0.03 µM
NC[C@H](O)c1ccc(O)c(O)c1 [No. 1, noradrenaline, reference compound]	1 µM
NCC(O)C1=CC2(CCCC2)c2ccccc21 (stereo not drawn) [No. 2, 2-Amino-1-[spiro(cyclopentane-1,1'-indene)-3'-yl]ethanol]	0.1 µM
CCNCC(O)C1=CC2(CCCC2)c2ccccc21 (stereo not drawn) [No. 4, 2-Ethylamino-1-[spiro(cyclopentane-1,1'-indene)-3'-yl]ethanol]	0.5 µM
CC1(C)C=C(C(O)CN)c2ccccc21 (stereo not drawn) [No. 8, 2-Amino-1-(1,1-dimethylindene-3-yl)ethanol]	0.3 µM
NCC(O)C1=CC2(CCCCC2)c2ccccc21 (stereo not drawn) [No. 9, 2-Amino-1-[spiro(cyclohexane-1,1'-indene)-3'-yl]ethanol]	3 µM
COc1ccc2c(c1)C(C(O)CN)=CC21CCCC1 (stereo not drawn) [No. 10, 2-Amino-1-[5'-methoxyspiro(cyclopentane-1,1'-indene)-3'-yl]-ethanol]	5 µM

Same assay, conditions: Rattus norvegicus, read-out: max. effect, % of NA max.

Compound	Emax
CNCCC1=CC2(CCCC2)c2ccccc21 [No. 15, reference compound]	0%

Same assay, conditions: noradrenaline-like activity

Compound	effect on rat vas deferens (in words)
CN(C)CC(=O)C1=CC2(CCCC2)c2ccccc21 [No. 13, reference compound]	inactive
CNCC(O)C1CC2(CCCC2)c2ccccc21 (stereo not drawn) [No. 14, reference compound]	effect disappears
CNCCC1=CC2(CCCC2)c2ccccc21 [No. 15, reference compound]	effect disappears

Same assay, conditions: rat isolated vas deferens, contraction relative to noradrenaline maximum

Compound	max. effect, % of NA max.
2-Isopropylamino-1-[spiro(cyclopentane-1,1'-indene)-3'-yl]ethanol [Example 12]	35%
2-Pyrrolidino-1-[spiro)cyclopentane-1,1'-indene)-3'-yl]-ethanol [Example 5]	50%
2-tert.-Butylamino-1-[spiro(cyclopentane-1,1'-indene)-3'-yl]ethanol [Example 11]	90%

Same assay, conditions: rat isolated vas deferens, contraction relative to noradrenaline maximum; read-out: max. effect, % of NA max.

Compound	Emax
CNCC(O)C1=CC2(CCCC2)c2ccccc21 (racemic) [No. 3, 2-Methylamino-1-[spiro(cyclopentane-1,1'-indene)-3'-yl]ethanol]	100%
NC[C@H](O)c1ccc(O)c(O)c1 [No. 1, noradrenaline, reference compound]	100%
NCC(O)C1=CC2(CCCC2)c2ccccc21 (stereo not drawn) [No. 2, 2-Amino-1-[spiro(cyclopentane-1,1'-indene)-3'-yl]ethanol]	100%
CCNCC(O)C1=CC2(CCCC2)c2ccccc21 (stereo not drawn) [No. 4, 2-Ethylamino-1-[spiro(cyclopentane-1,1'-indene)-3'-yl]ethanol]	85%
CC(C)NCC(O)C1=CC2(CCCC2)c2ccccc21 (stereo not drawn) [No. 6]	90%
NCC(O)C1=CC2(CCC2)c2ccccc21 (stereo not drawn) [No. 7]	120%
CC1(C)C=C(C(O)CN)c2ccccc21 (stereo not drawn) [No. 8, 2-Amino-1-(1,1-dimethylindene-3-yl)ethanol]	100%
NCC(O)C1=CC2(CCCCC2)c2ccccc21 (stereo not drawn) [No. 9, 2-Amino-1-[spiro(cyclohexane-1,1'-indene)-3'-yl]ethanol]	70%
COc1ccc2c(c1)C(C(O)CN)=CC21CCCC1 (stereo not drawn) [No. 10, 2-Amino-1-[5'-methoxyspiro(cyclopentane-1,1'-indene)-3'-yl]-ethanol]	65%
CN(C)CC(=O)C1=CC2(CCCC2)c2ccccc21 [No. 13, reference compound]	0%
CNCC(O)C1CC2(CCCC2)c2ccccc21 (stereo not drawn) [No. 14, reference compound]	0%

Same assay, conditions: rat isolated vas deferens, cumulative dose-response, 31° C.

EC50	Compound	threshold conc.
	2-Pyrrolidino-1-[spiro)cyclopentane-1,1'-indene)-3'-yl]-ethanol [Example 5]	10^-5 - 10^-4 M
0.15 µM	CNCC(O)C1=CC2(CCCC2)c2ccccc21 (racemic) [No. 3, 2-Methylamino-1-[spiro(cyclopentane-1,1'-indene)-3'-yl]ethanol]	
30 µM	NC[C@H](O)c1ccc(O)c(O)c1 [No. 1, noradrenaline, reference compound]	
40 µM	NCC(O)C1=CC2(CCCC2)c2ccccc21 (stereo not drawn) [No. 2, 2-Amino-1-[spiro(cyclopentane-1,1'-indene)-3'-yl]ethanol]	
1.5 µM	CCNCC(O)C1=CC2(CCCC2)c2ccccc21 (stereo not drawn) [No. 4, 2-Ethylamino-1-[spiro(cyclopentane-1,1'-indene)-3'-yl]ethanol]	
4 µM	CC(C)NCC(O)C1=CC2(CCCC2)c2ccccc21 (stereo not drawn) [No. 6]	
15 µM	NCC(O)C1=CC2(CCC2)c2ccccc21 (stereo not drawn) [No. 7]	
2 µM	CC1(C)C=C(C(O)CN)c2ccccc21 (stereo not drawn) [No. 8, 2-Amino-1-(1,1-dimethylindene-3-yl)ethanol]	
15 µM	NCC(O)C1=CC2(CCCCC2)c2ccccc21 (stereo not drawn) [No. 9, 2-Amino-1-[spiro(cyclohexane-1,1'-indene)-3'-yl]ethanol]	
50 µM	COc1ccc2c(c1)C(C(O)CN)=CC21CCCC1 (stereo not drawn) [No. 10, 2-Amino-1-[5'-methoxyspiro(cyclopentane-1,1'-indene)-3'-yl]-ethanol]	

Tested on: urethra strip (cat)
Test: Effect on urethra strip of cat
Format: cell-based
Conditions: Felis catus, isometric tension, Tyrode solution 37° C., pH 7.5
Procedure: (§1) Effect on urethra strip of cat and aortic strip of rabbit Adult male and female cats weighing 2-5 kg were used. The animals were anaesthetized with pentobarbital, 30-50 mg/kg intraperitoneally. An abdominal incision was made and the bladder and urethra were dissected free and cut. The bladder and urethra were placed in Tyrode solution of room temperature. Care was taken to keep the tissue moist during the preparation. The bladder was cut away and the urethra was cut longitudinally. Segments of 2-3 mm width were mounted in an organ-bath with Tyrode solution at 37° C. and connected to a strain gauge transducer so that the isometric tension could be recorded. The preparation was maintained at pH 7.5 by bubbling a mixture of 93.5 volume-% O2 and 6.5 volume-% CO2 through the solution. This experimental set up thus allowed the recording of circular muscle activity as isometric tension changes. The initial tension was set at approximately 0.5 g. After mounting, the preparation was allowed 1 hour for acclimatization before starting the experiment. All recordings were made from the base line. The drugs were added directly to the organ-baths and cumulative dose-response curves were recorded. Noradrenaline has consistently been used as a reference drug for agonistic action. The substances tested as agonists were noradrenaline bitartrate (NA) and the above compound No. 3. […]

EC50	Compound
0.69 µM	CNCC(O)C1=CC2(CCCC2)c2ccccc21 (racemic) [No. 3, 2-Methylamino-1-[spiro(cyclopentane-1,1'-indene)-3'-yl]ethanol]
27 µM	NC[C@H](O)c1ccc(O)c(O)c1 [No. 1, noradrenaline, reference compound]

Tested on: aortic strip (rabbit)
Test: Effect on aortic strip of rabbit
Format: cell-based
Conditions: Oryctolagus cuniculus
Procedure: as §1

EC50	Compound
0.045 µM	CNCC(O)C1=CC2(CCCC2)c2ccccc21 (racemic) [No. 3, 2-Methylamino-1-[spiro(cyclopentane-1,1'-indene)-3'-yl]ethanol]
0.18 µM	NC[C@H](O)c1ccc(O)c(O)c1 [No. 1, noradrenaline, reference compound]
